Patent US6229011A, “N-aroylphenylalanine derivative VCAM-1 inhibitors” (Hoffman-La Roche Inc., priority 1998, dated 2001)

Legend:
[1] = target: T1, VLA-4 (α4β1 integrin) (Homo sapiens, UniProt P05556+P13612); test: cell-based; type: cell-based
Description: Ramos (VLA-4)/VCAM-1 Cell-Based Screening Assay Protocol
Calcein-AM was purchased from Molecular Probes Inc.
VLA-4 (α4β1 integrin) antagonist activity, defined as ability to compete with cell-surface VLA-4 for binding to immobilized VCAM-1, was quantitated using a Ramos-VCAM-1 cell adhesion assay. Ramos cells bearing cell-surface VLA-4, were labeled with a fluorescent dye (Calcein-AM) and allowed to bind VCAM-1 in the presence or absence of test compounds.
Initially, this entailed coating 96 well plates (Nunc Maxisorp) with recombinant human VCAM-1 (100 ng in 100 μl PBS), sealing each plate and allowing the plates to stand at 4° C. for Å 18 hr. The VCAM-coated plates were subsequently washed twice with 0.05% Tween-20 in PBS, and then blocked for 1 hr (room temperature) with 200 μl of Blocking Buffer (1% BSA/0.02% thimerosal) to reduce non-specific binding. Following the incubation with Blocking Buffer, plates were inverted, blotted and the remaining buffer aspirated. Each plate was then washed with 300 μl PBS, inverted and the remaining PBS aspirated.
Test compounds were dissolved in 100% DMSO and then diluted 1:25 in VCAM Cell Adhesion Assay Buffer (4 mM CaCl2, 4 mM MgCl2 in 50 mM TRIS-HCl, pH 7.5) (final DMSO=4%). […] 100 μl/well of each dilution was added to the VCAM-coated plates, followed by 100 μl of Ramos cells (200,000 cells/well in 1% BSA/PBS). […] Plates were inverted to remove non-adherent cells, blotted and 300 μl/well PBS added. Plates were again inverted, blotted and the remaining buffer gently aspirated. 100 μl Lysis Buffer (0.1% SDS in 50 mM TRIS-HCl, pH 8.5) was added to each well and agitated for 2 min on a rotary shaking platform.

[2] = target: T1, VLA-4 (α4β1 integrin); test: biochemical; type: binding
Protocol: VLA-4/VCAM-1 Screening Assay
VLA-4 antagonist activity, defined as ability to compete for binding to immobilized VCAM-1, was quantitated using a solid-phase, dual antibody ELISA. VLA-4 (α4β1 integrin) bound to VCAM-1 is detected by a complex of anti-integrin β1 antibody: HRP-conjugated anti-mouse IgG: chromogenic substrate (K-Blue). Initially, this entailed coating 96 well plates (Nunc Maxisorp) with recombinant human VCAM-1 (0.4 μg in 100 μl PBS), sealing each plate and then allowing the plates to stand at 4° C. for Å 18 hr. […] On the day of assay, all plates are washed twice with VCAM Assay Buffer (200 μl/well of 50 mM Tris-HCl. 100 mM NaCl, 1 mM MnCl2), 0.05% Tween 20; pH 7.4). Test compounds are dissolved in 100% DMSO and then diluted 1:20 in VCAM Assay Buffer supplemented with 1 mg/mL BSA (i.e., final DMSO=5%). […] 100 μl per well of each dilution is added to the VCAM-coated plates, followed by 10 μl of Ramos cell-derived VLA-4. These plates are sequentially mixed on a platform shaker for 1 min, incubated for 2 hr at 37° C., and then washed four times with 200 μl/well VCAM Assay Buffer. 100 μl of mouse anti-human integrin β1 antibody is added to each well (0.6 μg/mL in VCAM Assay Buffer+1 mg/mL BSA) and allowed to incubate for 1 hr at 37° C. At the conclusion of this incubation period, all plates are washed four times with VCAM Assay Buffer (200 μl/well). A corresponding second antibody, HRP-conjugated goat anti-mouse IgG (100 μl per well @1:800 dilution in VCAM Assay Buffer+1 mg/mL BSA), is then added to each well, followed by a 1 hr incubation at room temperature and concluded by three washes (200 μl/well) with VCAM Assay Buffer. Color development is initiated by addition of 100 μl K-Blue per well (15 min incubation, room temp) and terminated by addition of 100 μl Red Stop Buffer per well. […] Results are calculated as % inhibition of total binding (i.e. VLA-4+VCAM-1 in the absence of test compound).

[3] = target: VLA-4 (Homo sapiens, UniProt P05556+P13612); test: IC50 of table 7, assay not given; details: table 7, Examples 79-84; assay not stated
Chain of VLA-4 (P13612 34-1032): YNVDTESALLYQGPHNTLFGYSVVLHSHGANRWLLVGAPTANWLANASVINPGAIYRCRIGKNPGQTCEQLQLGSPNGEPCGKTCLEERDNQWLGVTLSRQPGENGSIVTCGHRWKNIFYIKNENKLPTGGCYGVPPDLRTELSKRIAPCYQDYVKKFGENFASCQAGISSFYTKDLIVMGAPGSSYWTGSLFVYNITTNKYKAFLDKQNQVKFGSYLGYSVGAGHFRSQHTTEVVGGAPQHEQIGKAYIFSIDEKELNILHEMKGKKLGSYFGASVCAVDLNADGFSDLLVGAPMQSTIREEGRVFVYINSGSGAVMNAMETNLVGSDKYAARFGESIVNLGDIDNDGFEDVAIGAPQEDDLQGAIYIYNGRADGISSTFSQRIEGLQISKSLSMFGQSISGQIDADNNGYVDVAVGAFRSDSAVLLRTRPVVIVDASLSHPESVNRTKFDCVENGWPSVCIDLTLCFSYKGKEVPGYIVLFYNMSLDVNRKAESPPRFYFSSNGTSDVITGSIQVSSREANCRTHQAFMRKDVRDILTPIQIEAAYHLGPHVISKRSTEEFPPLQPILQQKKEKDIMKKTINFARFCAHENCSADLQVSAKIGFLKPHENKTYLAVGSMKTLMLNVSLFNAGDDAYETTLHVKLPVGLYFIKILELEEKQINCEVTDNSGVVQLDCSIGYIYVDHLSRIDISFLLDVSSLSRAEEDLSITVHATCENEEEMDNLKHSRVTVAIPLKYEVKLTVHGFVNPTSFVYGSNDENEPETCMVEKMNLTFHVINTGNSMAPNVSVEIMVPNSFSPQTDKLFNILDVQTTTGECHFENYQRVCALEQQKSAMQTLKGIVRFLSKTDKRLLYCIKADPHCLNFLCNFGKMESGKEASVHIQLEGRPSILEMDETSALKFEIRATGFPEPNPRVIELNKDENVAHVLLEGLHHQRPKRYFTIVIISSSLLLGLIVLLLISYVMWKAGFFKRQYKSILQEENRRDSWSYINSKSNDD
Chain of VLA-4 (P05556 21-798): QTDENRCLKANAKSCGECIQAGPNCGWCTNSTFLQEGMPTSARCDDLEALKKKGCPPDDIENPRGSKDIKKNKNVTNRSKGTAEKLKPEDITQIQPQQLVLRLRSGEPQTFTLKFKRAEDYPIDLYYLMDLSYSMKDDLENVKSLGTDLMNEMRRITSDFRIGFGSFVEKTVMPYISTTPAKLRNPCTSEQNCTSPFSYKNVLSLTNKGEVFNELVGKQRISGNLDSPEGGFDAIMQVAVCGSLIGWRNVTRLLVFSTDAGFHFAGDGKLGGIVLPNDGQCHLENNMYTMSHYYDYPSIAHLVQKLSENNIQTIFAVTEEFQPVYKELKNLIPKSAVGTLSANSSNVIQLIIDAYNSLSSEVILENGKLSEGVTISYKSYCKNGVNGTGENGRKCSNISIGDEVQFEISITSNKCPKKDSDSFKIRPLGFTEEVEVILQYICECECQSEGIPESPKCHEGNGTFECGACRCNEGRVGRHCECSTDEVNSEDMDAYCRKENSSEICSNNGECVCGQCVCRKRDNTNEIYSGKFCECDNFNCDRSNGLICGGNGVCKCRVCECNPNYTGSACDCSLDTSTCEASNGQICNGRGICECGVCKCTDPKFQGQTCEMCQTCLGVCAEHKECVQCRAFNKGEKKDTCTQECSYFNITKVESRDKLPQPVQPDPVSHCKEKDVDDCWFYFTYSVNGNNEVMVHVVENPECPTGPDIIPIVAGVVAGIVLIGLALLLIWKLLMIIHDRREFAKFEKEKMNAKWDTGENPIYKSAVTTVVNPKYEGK

[4] = table 14, Ramos cells binding to immobilized VCAM-1, read-out: Ramos IC50
[5] = table 13, competition for binding of Ramos cell-derived VLA-4 to immobilized VCAM-1, read-out: ELISA IC50
[6] = table 9, Examples 97-102, assay not given, values equal ELISA table 13, read-out: IC50
[7] = table 11, Examples 151-155, assay not given, values equal Ramos table 14, read-out: IC50
[8] = table 12, Examples 156-160, assay not given, values equal Ramos table 14, read-out: IC50

T1 sequence (P13612 34-1032): as the sequence (P13612 34-1032) above
T1 sequence (P05556 21-798): as the sequence (P05556 21-798) above

| Compound | IC50 [1, 4] [nM] | IC50 [2, 5] [nM] | also measured |
| --- | --- | --- | --- |
| 4-[(2S,4R)-3-Acetyl-2-phenyl-4-(3-pyridinylmethyl)-5-oxo-1-imidazolinyl]-N- [(2-chloro-6-methylphenyl)carbonyl]-L-phenylalanine and 4-[(2R,4R)-3-acetyl-2-phenyl-4-(3-pyridinylmethyl)-5-oxo-1-imidazolinyl)-N-[(2-chloro-6-methylphenyl)carbonyl]-L-phenylalanine [Example 171] | 13.5 | – | – |
| O=C(Nc1ccc(C[C@H](NC(=O)c2cccc3ccccc23)C(=O)O)cc1)c1c(Cl)cccc1Cl [Example 15] | 2.6 | 5.9 | – |
| O=C(Nc1ccc(C[C@H](NC(=O)c2c(F)cccc2C(F)(F)F)C(=O)O)cc1)c1c(Cl)cccc1Cl [Example 16] | – | 0.44 | – |
| CC(C)(C)c1ccccc1C(=O)N[C@@H](Cc1ccc(NC(=O)c2c(Cl)cccc2Cl)cc1)C(=O)O [Example 17] | – | 1.85 | – |
| COc1ccc(C(=O)N[C@@H](Cc2ccc(NC(=O)c3c(Cl)cccc3Cl)cc2)C(=O)O)c(Cl)c1 [Example 19] | – | 1.87 | – |
| O=C(N[C@@H](Cc1ccc(NC(=O)c2c(Cl)cccc2Cl)cc1)C(=O)O)c1cccc(Cl)c1Cl [Example 20] | 1.63 | – | – |
| Cc1cccc(C(=O)N[C@@H](Cc2ccc(NC(=O)c3c(Cl)cccc3Cl)cc2)C(=O)O)c1Cl [Example 21] | 1.27 | – | – |
| O=C(N[C@@H](Cc1ccc(NC(=O)c2c(Cl)cccc2Cl)cc1)C(=O)O)c1ccc(Br)cc1Cl [Example 22] | 1.32 | – | – |
| Cc1ccc(Cl)c(C(=O)N[C@@H](Cc2ccc(NC(=O)c3c(Cl)cccc3Cl)cc2)C(=O)O)c1 [Example 23] | 316 | 0.48 | – |
| COc1ccc(Br)c(C(=O)N[C@@H](Cc2ccc(NC(=O)c3c(Cl)cccc3Cl)cc2)C(=O)O)c1 [Example 24] | 20 | – | – |
| CSc1ccccc1C(=O)N[C@@H](Cc1ccc(NC(=O)c2c(Cl)cccc2Cl)cc1)C(=O)O [Example 25] | 103 | 0.42 | – |
| O=C(N[C@@H](Cc1ccc(NC(=O)c2c(Cl)cccc2Cl)cc1)C(=O)O)c1ccccc1Cc1ccccc1 [Example 31, 4-[[(2,6-dichlorophenyl)carbonyl]amino]-N-[[(2-phenylmethyl)phenyl]carbonyl]-L-phenylalanine] | – | 0.51 | – |
| Cc1cccc(Cl)c1C(=O)N[C@@H](Cc1ccc(N2C(=O)[C@H](C)N(C)C2=O)cc1)C(=O)O [Example 79] | – | – | IC50 [3]: 53 nM |
| Cc1cccc(Cl)c1C(=O)N[C@@H](Cc1ccc(N2C(=O)[C@H](C(C)C)N(C)C2=O)cc1)C(=O)O [Example 80] | – | – | IC50 [3]: 24 nM |
| Cc1cccc(Cl)c1C(=O)N[C@@H](Cc1ccc(N2C(=O)[C@@H](CC(C)C)N(C)C2=O)cc1)C(=O)O [Example 82] | – | – | IC50 [3]: 56 nM |
| Cc1cccc(Cl)c1C(=O)NC(Cc1ccc(N2C(=O)C3Cc4ccccc4CN3C2=O)cc1)C(=O)O (stereo not shown) [Example 83] | – | – | IC50 [3]: 72 nM |
| Cc1cccc(Cl)c1C(=O)N[C@@H](Cc1ccc(N2C(=O)[C@H](Cc3ccccc3)N(C)C2=O)cc1)C(=O)O [Example 84] | – | – | IC50 [3]: 73 nM |

| Compound | IC50 [1, 4] [nM] | IC50 [2, 5] [nM] | also measured |
| --- | --- | --- | --- |
| CCc1cccc(C)c1C(=O)N[C@@H](Cc1ccc(NC(=O)c2c(Cl)cccc2Cl)cc1)C(=O)O [Example 92] | 255 | 0.42 | IC50 ([1]; table 8, Examples 90-95, read-out: IC50 Ramos): 10 nM |
| CC(=O)N1[C@H](CC(C)C)C(=O)N(c2ccc(C[C@H](NC(=O)c3c(C)cccc3Cl)C(=O)O)cc2)[C@H]1c1ccc(O)cc1 [Example 97] | – | – | IC50 [2, 6]: 0.44 nM |
| CC(=O)N1[C@H](CC(C)C)C(=O)N(c2ccc(C[C@H](NC(=O)c3c(C)cccc3Cl)C(=O)O)cc2)[C@@H]1c1ccc(O)cc1 [Example 98] | – | – | IC50 [2, 6]: 2.35 nM |
| CC(=O)N1CN(c2ccc(C[C@H](NC(=O)c3c(C)cccc3Cl)C(=O)O)cc2)C(=O)[C@@H]1CC(C)C [Example 101] | – | – | IC50 [2, 6]: 9.9 nM |
| CC(=O)N1[C@H](CC(C)C)C(=O)N(c2ccc(C[C@H](NC(=O)c3c(C)cccc3Cl)C(=O)O)cc2)[C@@H]1C(C)(C)C [Example 102] | – | – | IC50 [2, 6]: 41 nM |
| COc1ccc(Br)c(C(=O)N[C@@H](Cc2ccc(NC(=O)c3c(C)ccnc3C)cc2)C(=O)O)c1 [Example 108] | 22 | 0.63 | – |
| Cc1cc(C[C@H](NC(=O)c2c(C)cccc2Cl)C(=O)O)ccc1NC(=O)CCc1cccc(O)c1 [Example 120] | 439 | 4.5 | – |
| Cc1cc(C[C@H](NC(=O)c2c(C)cccc2Cl)C(=O)O)ccc1NC(=O)Cc1cccc(O)c1 [Example 121] | 515 | 5.8 | – |
| Cc1cc(C[C@H](NC(=O)c2c(C)cccc2Cl)C(=O)O)ccc1NC(=O)c1cccc([N+](=O)[O-])c1 [Example 122] | 430 | 0.67 | – |
| Cc1cc(C[C@H](NC(=O)c2c(C)cccc2Cl)C(=O)O)ccc1NC(=O)c1c(Cl)cccc1Cl [Example 123] | 316 | 1.7 | – |
| Cc1cccc(Cl)c1C(=O)N[C@@H](Cc1ccc(NC(=O)c2sc(C(C)C)nc2C)cc1)C(=O)O [Example 152] | – | – | IC50 [1, 7]: 967 nM |
| Cc1cccc(Cl)c1C(=O)N[C@@H](Cc1ccc(NC(=O)c2c(C)noc2C)cc1)C(=O)O [Example 153] | – | – | IC50 [1, 7]: 975 nM |
| Cc1cccc(Cl)c1C(=O)N[C@@H](Cc1ccc(NC(=O)c2nn(-c3ccccc3)nc2C)cc1)C(=O)O [Example 154] | – | – | IC50 [1, 7]: 2470 nM |
| Cc1cc2ncc(C(=O)Nc3ccc(C[C@H](NC(=O)c4c(C)cccc4Cl)C(=O)O)cc3)c(C)n2n1 [Example 155] | – | – | IC50 [1, 7]: 644 nM |
| Cc1noc(C)c1C(=O)N[C@@H](Cc1ccc(NC(=O)c2c(Cl)cccc2Cl)cc1)C(=O)O [Example 158] | – | – | IC50 [1, 8]: 946 nM |
| Cc1nn(-c2ccccc2)nc1C(=O)N[C@@H](Cc1ccc(NC(=O)c2c(Cl)cccc2Cl)cc1)C(=O)O [Example 159] | – | – | IC50 [1, 8]: 988 nM |
